The assay relates to eNOS promoter. Description: Activation of eNOS transcription (eNOS promoter-luciferase reporter gene assay). It is filed as cell-based, human. Particulars: 18 h incubation; for maximal fold induction: read-out: TIR (max); for EC50: EC50 of transcription induction ratio, determined graphically, human endothelial cell line, read-out: EC-50. On the procedure: Measurement of activation of eNOS transcription Activation of eNOS transcription was measured as described in detail in Li et al. “Activation of protein kinase C alpha and/or epsilon enhances transcription of the human endothelial nitric oxide synthase gene”, Mol. Pharmacol. 1998; 53: 630-637. Briefly, a 3.5 kB long fragment 5′ of the starting codon of the eNOS gene was cloned, sequenced and cloned in firefly luciferase expression plasmids to monitor activation of the eNOS promoter by reporter gene activity. A human endothelial cell line stable transfected and expressing this promoter-reporter construct was used for compound testing. Cells were incubated for 18 h with compounds. All compounds were dissolved in sterile DMSO. A final concentration of 0.5% DMSO in complete medium was allowed. Induction of reporter gene expression in these cells was measured using a standard luciferase assay system (Promega, Cat. No E150) according to the manufacturer's instructions. Luciferase induction in cells incubated with compounds were compared to those incubated with solvent alone. The ratio of both activities (transcription induction ratio, TIR) was plotted as a function of compound concentration. […] EC50 values of transcription induction ratios as a function of compound concentration were determined graphically.

The mark [1] stands for this setting: Homo sapiens, 18 h, maximum transcription induction ratio (luciferase with compound / solvent alone).
The mark [2] stands for this setting: Homo sapiens, Endothelial cell, 18 h.

Where two headings read alike, the source gives them in different places.

For `O=C(NC1Cc2ccccc2C1)c1ccc(-c2cccnc2)cc1` [Compound 435, N-INDAN-2-YL-4-PYRIDIN-3-YL-BENZAMIDE], the maximal fold induction under setting [1] was 2.5. Besides, under setting [2], the EC50 was 14 µM.

With `COc1c(Br)cccc1C(=O)NC1Cc2ccccc2C1` [Compound 253, 3-BROMO-N-INDAN-2-YL-2-METHOXY-BENZAMIDE], the maximal fold induction under setting [1] was 2.2. In addition, the EC50 under setting [2] was 13 µM.

As for `Cc1ccc(F)c(C(=O)NC2Cc3ccccc3C2)c1Cl` [Compound 346, 2-CHLORO-6-FLUORO-N-INDAN-2-YL-3-METHYL-BENZAMIDE], under setting [1], the maximal fold induction turned out to be 2.6. The EC50 under setting [2] worked out at 26 µM.

As for `O=C(NC1Cc2ccccc2C1)c1c(F)ccc(F)c1Cl` [Compound 360, 2-CHLORO-3,6-DIFLUORO-N-INDAN-2-YL-BENZAMIDE], the maximal fold induction under setting [1] came out at 2.6. The EC50 under setting [2] is 10 µM.

For the compound `O=C(NC1Cc2ccccc2C1)c1cccc(Oc2ccccc2)c1` [Compound 286, N-INDAN-2-YL-3-PHENOXY-BENZAMIDE], the maximal fold induction under setting [1] turned out to be 2.6. Also, the EC50 under setting [2] was 26 µM.

For the compound `O=C(NC1Cc2ccccc2C1)c1ccc(C(=O)C(F)(F)F)cc1` [Compound 256, N-INDAN-2-YL-4-(2,2,2-TRIFLUORO-ACETYL)-BENZAMIDE], the maximal fold induction under setting [1] turned out to be 2.5. Further, the EC50 under setting [2] is 11 µM.

In the case of `O=C(NC1Cc2ccccc2C1)c1ccc(Cl)cc1` [Compound 69, 4-CHLORO-N-INDAN-2-YL-BENZAMIDE], the maximal fold induction under setting [1] was 4.2. Further, the EC50 under setting [2] was determined as 0.4 µM.

`Cc1ccc(C(=O)NC2Cc3ccccc3C2)c(O)c1` [Compound 22, 2-HYDROXY-N-INDAN-2-YL-4-METHYL-BENZAMIDE]: the maximal fold induction under setting [1] came out at 2.1. For the same compound, the EC50 under setting [2] is 7 µM.

For `Cc1cc(Br)c(C(=O)NC2Cc3ccccc3C2)s1` [Compound 364, 3-BROMO-5-METHYL-THIOPHENE-2-CARBOXYLIC ACID INDAN-2-YLAMIDE], under setting [1], the maximal fold induction worked out at 2.9. For the same compound, the EC50 under setting [2] came to 2.1 µM.

For `CCCCOc1ccc(C(=O)NC2Cc3ccccc3C2)cc1` [Compound 30, 4-BUTOXY-N-INDAN-2-YL-BENZAMIDE], the maximal fold induction under setting [1] came to 2.94. The EC50 under setting [2] was found to be 3 µM.

With `CCOc1ccc(C(=O)NC2Cc3ccccc3C2)cc1` [Compound 26, 4-ETHOXY-N-INDAN-2-YL-BENZAMIDE], under setting [1], the maximal fold induction was determined as 3.8. The EC50 under setting [2] amounted to 0.9 µM.

Regarding `Cc1ccccc1C(=O)NC1Cc2ccccc2C1` [Compound 281, N-INDAN-2-YL-2-METHYL-BENZAMIDE], under setting [1], the maximal fold induction was found to be 3. Besides, under setting [2], the EC50 amounted to 0.684 µM.

Consider `O=C(NC1Cc2ccccc2C1)c1ccc(Cl)c(Cl)c1` [Compound 314, 3,4-DICHLORO-N-INDAN-2-YL-BENZAMIDE], for which, under setting [1], the maximal fold induction stood at 2.2. Under setting [2], the EC50 turned out to be 12 µM.

`Cc1csc(C(=O)NC2Cc3ccccc3C2)c1Cl` [Compound 342, 3-CHLORO-4-METHYL-THIOPHENE-2-CARBOXYLIC ACID INDAN-2-YLAMIDE]: the maximal fold induction under setting [1] is 3. In addition, the EC50 under setting [2] amounted to 0.287 µM.

As for `O=C(NC1Cc2ccccc2C1)c1c(F)ccc(F)c1F` [Compound 274, 2,3,6-TRIFLUORO-N-INDAN-2-YL-BENZAMIDE], under setting [2], the EC50 is 21 µM.

For `CCCC(=O)Nc1cccc(C(=O)NC2Cc3ccccc3C2)c1` [Compound 375, 3-BUTYRYLAMINO-N-INDAN-2-YL-BENZAMIDE], under setting [1], the maximal fold induction amounted to 2.3. The EC50 under setting [2] stood at 8 µM.

For the compound `COc1ccc(C(=O)NC2Cc3ccccc3C2)cc1` [Compound 291, N-INDAN-2-YL-4-METHOXY-BENZAMIDE], the maximal fold induction under setting [1] is 2.8. In addition, the EC50 under setting [2] was determined as 0.238 µM.

With `CCOc1cc(C(=O)NC2Cc3ccccc3C2)ccc1OC` [Compound 25, 3-ETHOXY-4-METHOXY-N-INDAN-2-YL-BENZAMIDE], the maximal fold induction under setting [1] was 2.7. Further, the EC50 under setting [2] is 12 µM.

For the compound `Cc1cc(C(=O)NC2Cc3ccccc3C2)c(C)s1` [Compound 368, 2,5-DIMETHYL-THIOPHENE-3-CARBOXYLIC ACID INDAN-2-YLAMIDE], the maximal fold induction under setting [1] was determined as 2.5. The EC50 under setting [2] is 17 µM.

Turning to `CC(C)(C)C(=O)Nc1cccc(C(=O)NC2Cc3ccccc3C2)c1` [Compound 380, 3-(2,2-DIMETHYL-PROPIONYLAMINO)-N-INDAN-2-YL-BENZAMIDE], the maximal fold induction under setting [1] was found to be 2.6. Moreover, the EC50 under setting [2] worked out at 2.3 µM.

As to `O=C(N[C@@H]1Cc2ccccc2[C@H]1O)c1ccc(F)cc1` (relative stereo) [Compound 8, 4-FLUORO-N-(TRANS-1-HYDROXY-INDAN-2-YL)-BENZAMIDE], under setting [1], the maximal fold induction was 2.2. In addition, under setting [2], the EC50 amounted to 8 µM.

Take `O=C(NC1Cc2ccccc2C1)c1cccc(Cl)c1F` [Compound 250, 3-CHLORO-2-FLUORO-N-INDAN-2-YL-BENZAMIDE]: under setting [1], the maximal fold induction stood at 2.5. For the same compound, under setting [2], the EC50 stood at 58 µM.

For the compound `CCOc1ccc(C(=O)NC2Cc3ccccc3C2)c(O)c1` [Compound 23, 4-ETHOXY-2-HYDROXY-N-INDAN-2-YL-BENZAMIDE], the maximal fold induction under setting [1] stood at 2.2. Also, the EC50 under setting [2] was 5 µM.

Regarding `CS(=O)(=O)Nc1cccc(C(=O)NC2Cc3ccccc3C2)c1` [Compound 388, N-INDAN-2-YL-3-METHANE SULFONYLAMINO-BENZAMIDE], the EC50 was found to be 1.1 µM. In addition, the “TIR (max)” value (maximum transcription induction ratio (luciferase with compound / solvent alone)) is reported as 2.4.

With `O=C(NC1Cc2ccccc2C1)c1ccc2ccccc2c1` [Compound 295, NAPHTHALENE-2-CARBOXYLIC ACID INDAN-2-YLAMIDE], the maximal fold induction under setting [1] was 2.4. Besides, the EC50 under setting [2] was determined as 0.846 µM.

For `CS(=O)(=O)c1csc(C(=O)NC2Cc3ccccc3C2)c1Cl` [Compound 321, 3-CHLORO-4-METHANESULFONYL-THIOPHENE-2-CARBOXYLIC ACID INDAN-2-YLAMIDE], the maximal fold induction under setting [1] was found to be 2.5. Also, under setting [2], the EC50 stood at 9.6 µM.

`O=C(NC1Cc2ccccc2C1)c1c(F)cccc1Br` [Compound 358, 2-BROMO-6-FLUORO-N-INDAN-2-YL-BENZAMIDE]: the maximal fold induction under setting [1] amounted to 2.5. Also, the EC50 under setting [2] is 4.7 µM.

Take `O=C(NC1Cc2ccccc2C1)c1cccc(Br)c1` [Compound 382, 3-BROMO-N-INDAN-2-YL-BENZAMIDE]: the maximal fold induction under setting [1] stood at 2.5. For the same compound, the EC50 under setting [2] turned out to be 21 µM.

On to `O=C(NC1Cc2ccc(OS(=O)(=O)c3ccccc3)cc2C1)c1ccc(F)cc1` (stereo not shown) [Compound 405, BENZENESULFONIC ACID 2-(4-FLUOROBENZOYLAMINO)-INDAN-5-YL ESTER], for which the maximal fold induction under setting [1] is 2.8. Moreover, the EC50 under setting [2] stood at 30 µM.

As to `CS(=O)(=O)c1ccc(C(=O)NC2Cc3ccccc3C2)c(Cl)c1` [Compound 312, 2-CHLORO-N-INDAN-2-YL-4-METHANESULFONYL-BENZAMIDE], the maximal fold induction under setting [1] is 2.2. The EC50 under setting [2] is 16 µM.

Consider `Nc1c(C(=O)NC2Cc3ccccc3C2)cnn1-c1ccccc1` [Compound 427, 5-AMINO-1-PHENYL-1H-PYRAZOLE-4-CARBOXYLIC ACID INDAN-2-YLAMIDE], for which the maximal fold induction under setting [1] is 2.5. Further, the EC50 under setting [2] was found to be 3.7 µM.

For `O=C(NC1Cc2ccccc2C1)c1ccc(SC(F)(F)F)cc1` [Compound 246, N-INDAN-2-YL-4-TRIFLUOROMETHYLSULFANYL-BENZAMIDE], the maximal fold induction under setting [1] worked out at 2.5. For the same compound, the EC50 under setting [2] is 0.67 µM.

Take `Nc1nccnc1C(=O)NC1Cc2ccccc2C1` [Compound 185, 3-AMINO-PYRAZINE-2-CARBOXYLIC ACID INDAN-2-YLAMIDE]: the maximal fold induction under setting [1] was 2.4. Besides, the EC50 under setting [2] is 27 µM.

With `O=C(NC1Cc2ccccc2C1)c1ccc(Cl)nc1Cl` [Compound 203, 2,6-DICHLORO-N-INDAN-2-YL-NICOTINAMIDE], the maximal fold induction under setting [1] was found to be 2.7. For the same compound, under setting [2], the EC50 came to 16 µM.

Turning to `CN(C)C(=O)C=Cc1cccc2c1CC(NC(=O)c1ccc(F)cc1)C2` (stereo not shown) [Compound 411, N-[4-(2-DIMETHYLCARBAMOYL-VINYL)-INDAN-2-YL]-4-FLUORO-BENZAMIDE], the maximal fold induction under setting [1] came to 2.5. Besides, the EC50 under setting [2] is 2 µM.

In the case of `O=C(NC1Cc2ccccc2C1)c1cccc(F)c1` [Compound 24, 3-FLUORO-N-INDAN-2-YL-BENZAMIDE], under setting [1], the maximal fold induction amounted to 2.88. Under setting [2], the EC50 was 2.5 µM.

For the compound `O=C(NC1Cc2ccccc2C1)c1cccc(-c2ccccn2)c1` [Compound 433, N-INDAN-2-YL-3-PYRIDIN-2-YL-BENZAMIDE], the maximal fold induction under setting [1] was determined as 2.6. Besides, under setting [2], the EC50 was found to be 19 µM.

As to `O=C(NC1Cc2ccccc2C1)c1ccc(OCC(F)(F)F)cc1` [Compound 386B, N-INDAN-2-YL-4-(2,2,2-TRIFLUORO-ETHOXY)-BENZAMIDE], under setting [1], the maximal fold induction turned out to be 2.5. Further, the EC50 under setting [2] is 0.309 µM.

Turning to `Cc1cccc(C(=O)NC2Cc3ccccc3C2)c1Cl` [Compound 264, 2-CHLORO-N-INDAN-2-YL-3-METHYL-BENZAMIDE], the maximal fold induction under setting [1] came to 2.9. For the same compound, under setting [2], the EC50 was 0.58 µM.

In the case of `O=C(NC1Cc2ccccc2C1)c1ccc(Cl)cc1Cl` [Compound 277, 2,4-DICHLORO-N-INDAN-2-YL-BENZAMIDE], the maximal fold induction under setting [1] worked out at 3. Besides, the EC50 under setting [2] was 4.1 µM.

Source of the values: US7713963B2, “Acylated indanyl amines and their use as pharmaceuticals” (sanofi-aventis Deutschland GmbH, priority 2001, dated 2010).
